Where two headings read alike, the source gives them in different places.
Experiments:
[1] = tested on: 15-epi-LPXA4; details: cited from earlier work; for effect on pioglitazone+atorvastatin effect on myocardial 15-epi-LPXA4 levels: rats treated with pioglitazone+atorvastatin
[2] = tested on: 15-epi-LPXA4; test: Myocardial 15-epi-LPXA4 levels (ELISA) in treated rats; format: in vivo, Sprague-Dawley rats; details: for effect on pioglitazone+atorvastatin induction of myocardial 15-epi-LPXA4: pioglitazone+atorvastatin pretreated rats; for effect on myocardial 15-epi-LPXA4 levels: 8 h before harvest
Procedure: (§1) Rats received the following treatment (4 rats in each group): 1) i.v. saline and oral water; 2) i.v. saline and oral aspirin 10 mg/kg; 3) i.v. saline and oral aspirin 50 mg/kg; 4) i.v. LPS and oral water; 5) i.v. LPS and oral aspirin 10 mg/kg; 6) i.v. LPS and oral aspirin 50 mg/kg; 7) i.v. LPS and oral aspirin 200 mg/kg; 8) oral pioglitazone (10 mg/kg/d) and atorvastatin (10 mg/kg/d); 9) oral pioglitazone+atorvastatin and aspirin 10 mg/kg; 10) oral pioglitazone+atorvastatin and aspirin 50 mg/kg; 11) oral pioglitazone+atorvastatin and aspirin 50 mg/kg and i.v. 1400 W, a specific iNOS inhibitor; or 12) oral pioglitazone+atorvastatin, oral water, and i.v. 1400 W, a specific iNOS inhibitor. LPS (10 mg/kg) was dissolved in 1 ml of saline and was administered intravenously 8 hours before harvesting the hearts. Aspirin was dissolved in water and administered by oral gavage 8 hours before harvesting the hearts. Atorvastatin and pioglitazone were administered by oral gavage once daily for 3 days; last dose was administered 16 hours before harvesting the hearts. 1400 W (1 mg/kg) was administered i.v. 15 minutes before harvesting the hearts. All hearts were analyzed for myocardial 15-epi-LPXA4, lipoxin A4, 6-keto-PGF1α (the stable metabolite of PGI2) and PGE2 levels.
(§2) The hearts were rapidly explanted, rinsed in cold PBS (pH 7.4), containing 0.16 mg/ml heparin to remove red blood cells and clots, frozen in liquid nitrogen and stored at −70° C. For 15-epi-LPXA4 and lipoxin A4 determination, myocardial samples from the anterior left ventricular wall were homogenized in ethanol (5 ml/g) and centrifuged at 10,000 g X15 min at 4° C. The supernatant was diluted with water and acidified to pH 3.5 with 1N HCl. The sample was loaded into C-18 Sep-Pak light column (Waters Corporation, Milford, Mass.) and washed with 1 ml of water followed by 1 ml of petroleum ether. The sample was eluted with 2 ml of methyl formate. The methyl formate was evaporated with N2 and the residue was dissolved in extraction buffer. The manufacturer instruction of the ELISA Kits was followed. For myocardial 6-keto-PGF1α and PGE2 levels myocardial samples were homogenized in RIPA lysis buffer with 10% proteinase inhibitor (Sigma) and centrifuged. The supernatants were collected and stored on ice. Measurement of 6-keto-PGF1α (the stable hydrolysis product of PGI2) and PGE2 were performed as instructed by the manufacturer.

[3] = tested on: lipoxin A4; test: Myocardial lipoxin A4 levels (ELISA) in treated rats; format: in vivo, Sprague-Dawley rats; details: for effect on pioglitazone+atorvastatin effect on myocardial lipoxin A4: pioglitazone+atorvastatin pretreated rats
Procedure: as §1, §2

[4] = tested on: COX2; details: intravenous 1400 W, same dose as herein; 3-day pretreatment with atorvastatin 10 mg/kg/d; cited from earlier work
[5] = tested on: 6-keto-PGF1α (the stable metabolite of PGI2); test: Myocardial 6-keto-PGF1α levels (ELISA) in treated rats; format: in vivo, Sprague-Dawley rats; details: for effect on pioglitazone+atorvastatin increase of myocardial 6-keto-PGF1α: pioglitazone+atorvastatin pretreated rats
Procedure: as §1, §2

[6] = tested on: PGE2; test: Myocardial PGE2 levels (ELISA) in treated rats; format: in vivo, Sprague-Dawley rats; details: for effect on pioglitazone+atorvastatin increase of myocardial PGE2: pioglitazone+atorvastatin pretreated rats; for myocardial PGE2 levels: mean ±SEM
Procedure: as §1, §2

[7] = Infarct size after 30 minute coronary artery occlusion; format: in vivo; details: aspirin 20 mg/kg i.v. at end of 30 minute coronary artery occlusion; 3-day atorvastatin pretreatment
[8] = tested on: 15-epi-LXA4; details: normal human volunteers, cited from earlier work
[9] = tested on: COX2; test: Biotin switch assay and COX2 immunoblot of myocardial samples; format: in vivo, rats; details: compared with the pioglitazone+atorvastatin group
Procedure: S-nitrosylation of COX2 was determined by the biotin switch method as previously described (Atar et al., 2006). Briefly, myocardial samples from the left ventricular wall of rats treated with lipopolysaccharide (group 4) and pioglitazone+atorvastain (group 8) were homogenized in HEN buffer (25 mM HEPES (pH 7.7)-0.1 mM EDTA-0.01 mM necuproine). The supernatant containing membrane fragments and the cytosolic protein were recovered. The samples were incubated for 30 mins at 4° C. with blocking solution containing HEN buffer, 0.1% SDS and 20 mM N-ethylmaleimide (NEM) to block free thiols.
Lysates were centrifuged at 16,000×g for 10 min at 4° C. Cold acetone was added to precipitate the proteins. The pellets were resuspended in HEN buffer with 1% SDS, with 20 mM sodium ascorbate added to decompose the SNO bonds. The resulting free thiols in the sample were reacted with 0.05 mM biotinylating agent, biocytin (MPB) for 30 mins at room temperature. The excess MPB was removed by additional protein precipitation in cold acetone. COX2 was immunoprecipitated with anti-COX2 polyclonal antibody. […] The biotinylated COX2 protein was detected with horseradish peroxidase-linked streptavidin. […] The signal densities of the biotinylated COX2 and total COX2 were quantified by an image-scanning densitometer and the ratio of the densities was calculated for each animal.

In the case of `CC(C)c1c(C(=O)Nc2ccccc2)c(-c2ccccc2)c(-c2ccc(F)cc2)n1CC[C@@H](O)C[C@@H](O)CC(=O)O` [atorvastatin], the “effect on myocardial 15-epi-LPXA4 levels” value ([1]; 3 days oral 5 and 10 mg/kg/d, but not 2 mg/kg/d, each drug alone) is given as “increased”.
For `CC(=N)NCc1cccc(CN)c1` [1400 W], the “effect on pioglitazone+atorvastatin induction of myocardial 15-epi-LPXA4” value ([2]; 1400 W 1 mg/kg i.v. alone) is listed as “partially blocked”, the “effect on pioglitazone+atorvastatin effect on myocardial lipoxin A4” value ([3]; 1400 W alone) is listed as “not attenuated” and the “effect on augmentation of COX2 activity by atorvastatin” value [4] is listed as “blocked”. The “effect on pioglitazone+atorvastatin increase of myocardial 6-keto-PGF1α” value ([5]; 1400 W) was “attenuated” and the “effect on pioglitazone+atorvastatin increase of myocardial PGE2” value ([6]; 1400 W) was “completely blocked”.
In the case of `Cc1onc(-c2ccccc2)c1-c1ccc(S(N)(=O)=O)cc1` [valdecoxib], the “effect on pioglitazone+atorvastatin effect on myocardial 15-epi-LPXA4 levels” value [1] is listed as “blocked”.
For `CC(c1cc2ccccc2s1)N(O)C(N)=O` (stereo not shown) [zileuton], the “effect on pioglitazone+atorvastatin effect on myocardial 15-epi-LPXA4 levels” value [1] is listed as “blocked”.
With `CC(=O)Oc1ccccc1C(=O)O` [Aspirin] the “effect on myocardial 15-epi-LPXA4 levels” value ([2]; aspirin alone, oral 10 mg/kg) was “no effect”, the “effect on myocardial 15-epi-LPXA4 levels” value ([2]; aspirin alone, oral 50 mg/kg) was “no effect” and the “effect on LPS induction of myocardial 15-epi-LPXA4” value (shortened to “effect on LPS induction”) ([2]; i.v. LPS + oral aspirin 10 mg/kg, p=0.08 versus LPS alone) was “did not significantly alter”. For the same compound, the “effect on LPS induction” value ([2]; i.v. LPS + oral aspirin 50 mg/kg, p<0.001 versus LPS alone) was “augmented”, the “effect on LPS induction” value ([2]; i.v. LPS + oral aspirin 200 mg/kg, p<0.001 versus LPS alone) was “augmented” and the “effect on pioglitazone+atorvastatin induction of myocardial 15-epi-LPXA4” value ([2]; aspirin 10 mg/kg) was “attenuated”. For the same compound, the “effect on pioglitazone+atorvastatin induction of myocardial 15-epi-LPXA4” value ([2]; aspirin 50 mg/kg) was “completely blocked”, the “effect on infarct size limiting effect of atorvastatin” value [7] was “completely abrogated” and the “effect on LPS effect on myocardial lipoxin A4” value (shortened to “effect on LPS effect”) ([3]; LPS + aspirin 10 mg/kg) was “did not alter”. The “effect on LPS effect” value ([3]; LPS + aspirin 50 mg/kg) was “did not alter”, the “effect on LPS effect” value ([3]; LPS + aspirin 200 mg/kg, p<0.001 versus each of the other groups) was “augmented” and the “effect on myocardial lipoxin A4” value ([3]; aspirin alone, 10 mg/kg) was “did not affect”. The “effect on myocardial lipoxin A4” value ([3]; aspirin alone, 50 mg/kg) was “did not affect”, the “effect on pioglitazone+atorvastatin effect on myocardial lipoxin A4” value ([3]; aspirin alone) was “not attenuated” and the “effect on 15-epi-LXA4” value ([8]; 650 mg/d) was “did not increase”. The “blood levels of 15ELX at 81 mg/d compared with 325 mg/d” value [8] was “greater”, the “myocardial 6-keto-PGF1α levels” value ([5]; LPS + aspirin 10 mg/kg, p<0.001 versus LPS alone, mean ±SEM) was 76.70 ± 0.25 pg/mg and the “myocardial 6-keto-PGF1α levels” value ([5]; LPS + aspirin 50 mg/kg, p<0.001 versus LPS alone, mean ±SEM) was 27.66 ± 0.23 pg/mg. For the same compound, the “myocardial 6-keto-PGF1α levels” value ([5]; LPS + aspirin 200 mg/kg, p<0.001 versus LPS alone, mean ±SEM) was 25.39 ± 0.22 pg/mg, the “myocardial 6-keto-PGF1α levels” value ([5]; aspirin alone 10 mg/kg, p=0.48 versus control) was 22.35 pg/mg and the “myocardial 6-keto-PGF1α levels” value ([5]; aspirin alone 50 mg/kg, p=0.001 versus control, mean ±SEM) was 20.97 ± 0.51 pg/mg. For the same compound, the “effect on pioglitazone+atorvastatin increase of myocardial 6-keto-PGF1α” value ([5]; aspirin 10 mg/kg) was “attenuated”, the “effect on pioglitazone+atorvastatin increase of myocardial 6-keto-PGF1α” value ([5]; aspirin 50 mg/kg) was “attenuated” and the “myocardial PGE2 levels” value ([6]; LPS + aspirin 10 mg/kg, p<0.001 versus LPS alone) was 48.70 ± 3.02 pg/mg. The “myocardial PGE2 levels” value ([6]; LPS + aspirin 50 mg/kg, p<0.001 versus LPS alone) was 41.68 ± 0.24 pg/mg, the “myocardial PGE2 levels” value ([6]; LPS + aspirin 200 mg/kg, p<0.001 versus LPS alone) was 33.72 ± 0.46 pg/mg and the “myocardial PGE2 levels” value ([6]; aspirin alone 10 mg/kg, not significant versus control) was 34.48 ± 0.21 pg/mg. For the same compound, the “myocardial PGE2 levels” value ([6]; aspirin alone 50 mg/kg, not significant versus control) was 33.68 ± 0.24 pg/mg, the “effect on pioglitazone+atorvastatin increase of myocardial PGE2” value ([6]; aspirin 10 mg/kg) was “attenuated” and the “effect on pioglitazone+atorvastatin increase of myocardial PGE2” value ([6]; aspirin 50 mg/kg) was “completely blocked”.
For lipopolysaccharide [LPS], the “effect on myocardial 15-epi-LPXA4 levels” value ([2]; LPS 10 mg/kg i.v. alone) was “increased”, the “total COX2 immunoblot signal intensity” value [9] was “stronger” and the “effect on myocardial lipoxin A4 levels” value ([3]; LPS alone) was “small increase”. For the same compound, the “myocardial 6-keto-PGF1α levels” value ([5]; LPS alone, p<0.001 versus control, mean ±SEM) was 80.56 ± 0.21 pg/mg and the “myocardial PGE2 levels” value ([6]; LPS alone, p<0.001 versus control) was 70.31±0.26.

— patent US20080051417A1, “Uses of selective cyclooxygenase-1 inhibitors” (priority 2006, published 2008)
